Data taken from patent publication US6451735B1, “Glyphosate formulation” (priority 1998, dated 2002).
Counter-ions that a name gives are not always drawn.

Assay: solubility in water and solution density of glyphosate salt
Assay type: physicochemical

O=C(O)CNCP(=O)(O)O [potassium salt of glyphosate, N-phosphonomethylglycine]
density of solutions (aqueous solution): about 1.45 g/cc | solubility in water (water): readily soluble
